# Source: patent US20120196919A1, “EX-VIVO TREATMENT OF IMMUNOLOGICAL DISORDERS WITH PKC-THETA INHIBITORS” (NEW YORK UNIVERSITY, priority 2009, published 2012)
# Legend:
# PKC-theta = PKC-theta (Homo sapiens, UniProt Q04759); assay: luciferase assay for inhibition of the kinase activity of PKC-theta; assay type: biochemical; conditions: luciferase assay of US 2005/0124640
# Method: The preparation of these compounds and the luciferase assay used to determine the IC50 for inhibition of the kinase activity of PKC-theta are described in US Patent Application Publication number 2005/0124640. For the in vitro and ex vivo assays above, compounds were dissolved in DMSO. T cells were pretreated with indicated concentrations of the inhibitors or DMSO control for 30 min at 37° C. and washed three times.
# CD4+CD25+ Treg cells [1] = assay: Treg/Teff co-culture on anti-CD3 mAb, cell proliferation by Alamar Blue; assay type: cell-based, human; conditions: Treg treated 0.001-1 microM 30 min, washed, Treg/Teff 1:9, anti-CD3; proliferation after 96 h (FIG. 1b)
# Method: (§1) Treg cells and CD4^+CD25^− Teff (non-Treg) cells were treated with Compound Ia at 0.001-1 microM (a-b) for 30 min, or at 1 microM for 0-60 min (c). Treated cells were mixed with CD4^+CD25^− T (Teff) cells at 1:9 ratio and plated on immobilized anti-CD3 mAb. The supernatants were analyzed for IFN-gamma after 24-48 hours (a and c). Cell proliferation was determined after 96 hours (b). Average of four different experiments is shown.
# CD4^+CD25^+ regulatory T cells (Tregs) suppress the function of CD4^+ and CD8^+ effector cells (Teff) through an antigen receptor and cell contact mechanism. […] IFN-gamma secretion and cell proliferation were measured after 24 and 96 hours respectively. […]
# (§2) CD4^+CD25^+ Treg and CD4^+CD25^− Teff cells were purified from the peripheral blood of healthy human donors or from 25 patients with Rheumatoid arthritis in different stages (accordingly to disease activity score (DAS)) as described in the literature M. L. Prevoo, et al., Arthritis and rheumatism, 1995, 38, 44; A. Zanin-Zhorov, et al., J. Clin. Invest, 2006, 116, 2022). […] Cytokine secretion was determined by ELISA as previously described A. Zanin-Zhorov, et al., ibid., 2006), using Human IFN-gamma Cytose™ (Biosource; Camarillo, Calif.). Proliferation was assessed by Alamar Blue™ assay (Invitrogen) as previously described (S. A. Ahmed, et al., J. immunological Methods, 1994, 170, 211-224). […]
# CD4+CD25+ Treg cells [2] = assay: Treg/Teff co-culture on anti-CD3 mAb, IFN-gamma secretion by ELISA; assay type: cell-based, human
# Method: as §1
# Treg were treated with 1 microM PKC-theta inhibitors with different IC50 values as indicated on graph. Treated cells were mixed with CD4^+CD25^− T (Teff) cells at 1:9 ratio and plated on immobilized anti-CD3 mAb. The supernatants were analyzed for IFN-gamma after 24-48 hours. An average of four different experiments is shown. As shown in the graph, the enhancement of suppressive effect on IFN-gamma secretion generally correlates with the potency of the inhibitors.
# Treated Treg and non-Treg, or siRNA-transfected Treg were mixed with CD4^+CD25^− T (Teff) cells at 1:9 ratio and plated on immobilized anti-CD3 mAb. The supernatants were analyzed for IFN-gamma after 24-48 hours. An average of four different experiments is shown.
# CD4^+CD25^+ regulatory T cells (Tregs) suppress the function of CD4^+ and CD8^+ effector cells (Teff) through an antigen receptor and cell contact mechanism. […] We investigated whether inhibition of PKC-theta may affect the suppressive function of human CD4^+CD25^+ Treg cells in vitro. For this purpose, we treated CD4^+CD25^+ Treg or CD4^+CD25^− Teff cells (Treg or non-Treg respectively in FIGS. 1a and 1b) with a specific PKC-theta inhibitor, namely, Compound Ia, washed and cultured the cells with untreated Teff cells in a ratio of 1:9 on stimulatory anti-CD3 antibodies. IFN-gamma secretion and cell proliferation were measured after 24 and 96 hours respectively. […] Moreover, the effect of PKC-theta inhibitor on Treg function was time-dependent; maximal levels of enhanced suppressive function were achieved after 30 min of Treg treatment with the compound (FIG. 1c).
# as §2
# CD4+CD25+ Treg cells [3] = assay: T cell transfer model of colitis with ex vivo treated Treg; assay type: in vivo, C57BL/10.PL TCR alpha-/-beta-/- mice; conditions: inhibitor treated Treg
# Method: (§3) Colitis was induced in C57BL/10.PL TCR alpha^−/−beta^−/− mice as described in Methods summary. 5a—numbers of mice were 5 (PBS), 8 (Teff), 7 (Teff/Treg control), 7 (Teff/Treg PKC-theta inhibitor). 5b-Histology slides of distal colon for the different groups. Normal histology is observed in PKC-theta treated mice. 5c, 5d-Freshly purified Treg from healthy donors and RA patients were treated or not with PKC-theta inhibitor for 30 min at 1 microM, washed three times, mixed with CD4^+CD25^− T cells at ratio 1:3, and plated on anti-CD3 mAb. The supernatants were analyzed for IFN-gamma after 24-48 hours. Combined data of three independent experiments are presented. % Treg-mediated inhibition was calculated as: 1−level of IFN-gamma in presence of Treg/level of IFN-gamma in absence of Treg)φ100%. P values were calculated by t-test.
# Next, we determined the ability of PKC-theta inhibitor Ia to up-regulate Treg function in vivo using a colitis model in TCR alpha^−/−beta^−/− mice induced by transfer of effector CD4^+CD25^−CD45RB^+ Teff cells (F. Powrie, et al., J. Exp. Med. 1996, 183, 2669).
# […] Disease progression was monitored by body weight loss, diarrhea and histology analysis as previously described (F. Powrie, et al., J. Exp. Med. 1996, 183, 2669). P values were determined by Mann-Whitney test or two-tailed t-test by using the GraphPad Prism software (San Diego, Calif.).
# [4] = tested on: Treg cells purified from RA patients; assay: Suppression of IFN-gamma from autologous Teff by Treg purified from RA patients; assay type: cell-based, human; conditions: Treg from 25 RA patients, 1 microM 30 min, Treg/Teff 1:3, 24-48 h (FIG. 5d)
# Method: as §3, with “t-test. […]” for “t-test.”
# CD4^+CD25^+ Treg and CD4^+CD25^− Teff cells were purified from the peripheral blood of healthy human donors or from 25 patients with Rheumatoid arthritis in different stages (accordingly to disease activity score (DAS)) as described in the literature M. L. Prevoo, et al., Arthritis and rheumatism, 1995, 38, 44; A. Zanin-Zhorov, et al., J. Clin. Invest, 2006, 116, 2022). […] Cytokine secretion was determined by ELISA as previously described A. Zanin-Zhorov, et al., ibid., 2006), using Human IFN-gamma Cytose™ (Biosource; Camarillo, Calif.). […]
# Sequence of PKC-theta (Q04759 whole entry): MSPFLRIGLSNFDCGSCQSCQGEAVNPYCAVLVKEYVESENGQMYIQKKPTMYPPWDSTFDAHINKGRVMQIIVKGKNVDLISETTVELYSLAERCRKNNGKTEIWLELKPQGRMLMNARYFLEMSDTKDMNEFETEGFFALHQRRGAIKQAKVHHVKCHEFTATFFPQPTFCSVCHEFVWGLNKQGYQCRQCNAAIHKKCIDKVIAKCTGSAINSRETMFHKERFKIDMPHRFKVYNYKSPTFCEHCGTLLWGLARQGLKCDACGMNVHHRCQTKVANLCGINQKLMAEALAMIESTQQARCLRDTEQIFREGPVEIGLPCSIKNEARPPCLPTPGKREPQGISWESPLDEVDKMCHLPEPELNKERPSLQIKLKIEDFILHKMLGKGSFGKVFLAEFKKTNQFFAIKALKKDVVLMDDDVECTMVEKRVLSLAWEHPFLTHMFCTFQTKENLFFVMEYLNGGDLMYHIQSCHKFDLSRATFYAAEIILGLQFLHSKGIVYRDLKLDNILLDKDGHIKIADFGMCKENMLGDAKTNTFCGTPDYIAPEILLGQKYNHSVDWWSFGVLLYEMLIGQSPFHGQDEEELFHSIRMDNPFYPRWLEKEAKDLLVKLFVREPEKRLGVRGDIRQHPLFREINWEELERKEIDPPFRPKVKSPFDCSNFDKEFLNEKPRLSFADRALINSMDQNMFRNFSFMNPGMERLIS
compound,measurement,setting,value
N[C@H]1CC[C@H](CNc2nc(NCc3ccccc3OC(F)(F)F)ccc2[N+](=O)[O-])CC1 [Ie],IC50,PKC-theta,1000 nM
N[C@H]1CC[C@H](CNc2nc(NCc3ccccc3OC(F)(F)F)ncc2[N+](=O)[O-])CC1 [Ib],IC50,PKC-theta,1 nM
O=[N+]([O-])c1cnc(NCC2CCNCC2)nc1NCc1ccccc1OC(F)(F)F [Id],IC50,PKC-theta,300 nM
O=[N+]([O-])c1cnc(SCc2ccccc2Cl)nc1NCC1CCNCC1 [Ic],IC50,PKC-theta,8 nM
NC[C@H]1CC[C@H](CNc2nc(NCc3ccccc3OC(F)(F)F)ncc2[N+](=O)[O-])CC1 [Compound Ia],suppressive ability of Treg cells (cell proliferation),CD4+CD25+ Treg cells [1],significantly up-regulated
same,induction of suppressive activity in treated Teff (non-Treg) added to untreated responder Teff,"CD4+CD25+ Treg cells [2]; CD4+CD25- Teff treated, 1:9 ratio (FIGS. 1a and 1b)",does not induce suppressive activity
same,suppressive ability of Treg cells (IFN-gamma production by Teff),"CD4+CD25+ Treg cells [2]; Treg treated 0.001-1 microM 30 min, washed, Treg/Teff 1:9, anti-CD3, IFN-gamma after 24 h (FIG. 1a)",significantly up-regulated
same,treatment time for maximal levels of enhanced suppressive function,"CD4+CD25+ Treg cells [2]; Treg treated at 1 microM for 0-60 min, IFN-gamma readout (FIG. 1c)",30 min
same,ability of Treg cells to inhibit IFN-gamma secretion in Teff cells,"CD4+CD25+ Treg cells [2]; treated or siRNA-transfected Treg, Treg/Teff 1:9, 24-48 h (FIG. 4)",increased
same,mice with normal weight gain and normal histology of the distal colon,CD4+CD25+ Treg cells [3]; 1:4 ratio of Treg/Teff,7 of 8
same,protection of the recipient mice from colitis,CD4+CD25+ Treg cells [3]; 1:4 ratio of Treg/Teff (FIGS. 5a and 5b),~100%
same,IC50,PKC-theta,0.7 nM
same,suppressive function of Treg cells purified from RA patients (IFN-gamma),[4],significantly increased
